Experimental data reported in EPA's ToxValDB 9.5 (doi:10.2903/j.efsa.2016.4604).
Values after ≈ are worked out from the molar mass of the structure shown.

How the values were obtained:
Cyprinus carpio = conditions: acute; duration: 96 hours; mortality
Tagia sp. = conditions: for NOEC: chronic/long-term, duration: 8 weeks
Folsomia candida = conditions: chronic/long-term; duration: 28 days
Daphnia magna = conditions: chronic/long-term; duration: 21 days; mobility
Colinus virginianus = conditions: acute, oral, mortality
Pimephales promelas = conditions: chronic/long-term; duration: 35 days; body weight
Canidae = conditions: chronic; duration: 1 years; oral; diet; Dog Other; histopathology: nonneoplastic
Apis mellifera = conditions: acute, mortality
Typhlodromus pyri = experiment: LR50; higher = less toxic; conditions: not reported; mortality

Work on `CC(=O)c1ccccc1NC(=O)c1c(C)nn(C)c1F` yielded an LC50 (Cyprinus carpio) of over 0.799 µg/mL, an NOEC (Tagia sp.) of 500 mg/kg and an NOEC (Folsomia candida) of 1000 mg/kg.
For `Cc1nn(C)c(F)c1C(=O)Nc1ccccc1C(C)CC(C)(C)O` (configuration not stated), the LC50 (Cyprinus carpio) was over 15.7 µg/mL, the NOEC (Tagia sp.) was 1000 mg/kg and the NOEC (Folsomia candida) was 1000 mg/kg.
In the case of `Cc1nn(C)c(F)c1C(=O)Nc1ccccc1C(C)CC(C)C` (configuration not stated) [Penflufen], the NOEC (Daphnia magna) was 1.53 mg/L, the LC50 (Cyprinus carpio) was 0.103 µg/mL (≈ 0.325 µM) and the LD50 (Colinus virginianus; diet) was over 1700 mg/kg-day. It also gave an LD50 (Colinus virginianus) of over 4000 mg/kg-day, an LC50 (Tagia sp.; acute, duration: 14 days, mortality) of over 1000 mg/kg and an NOEC (Tagia sp.) of 33 mg/kg. It also gave an NOEC (Folsomia candida) of 231 mg/kg, an NOEC (Pimephales promelas) of 23.4 µg/L and an NOAEL (Rattus norvegicus; acute, oral, F, clinical signs) of 50 mg/kg-day. It also gave an LD50 (Rattus norvegicus; acute, oral, mortality) of over 2000 mg/kg-day, an NOAEL (Rattus norvegicus; chronic, duration: 2 years, oral, diet, histopathology: nonneoplastic) of 4 mg/kg-day and an NOAEL (Rattus norvegicus; reproduction developmental, M, body weight) of 58 mg/kg-day. It also gave an NOAEL (Canidae) of 7.7 mg/kg-day, an LD50 (Apis mellifera; duration: 48 hours, dermal) of over 100 µg/piece and an LD50 (Apis mellifera; oral, unspecified) of over 105 µg/piece. For the same molecule, the LR50 (Typhlodromus pyri) was over 250 g/ha.
